From patent US20250034171A1, “IMIDAZOPYRIDINE AMIDES AND RELATED COMPOUNDS FOR USE IN THE TREATMENT OF BACTERIAL INFECTIONS” (priority 2021, published 2025) come the findings set out here.

Each structure is given as a SMILES string. In brackets after ≈: the same amount, converted by molar mass. Like-named read-outs stand apart in the source and are kept apart here. Bounds are passed on as bounds.

In general, MIC90 refers to an inhibitory concentration at the 90% level, which refers to growth in some studies and to a panel of isolates in others.

For the assay, the system named is Mycobacterium tuberculosis strain H37Rv. Kind of assay: Test 2: MIC determination against M. tuberculosis, resazurin fluorescence. The assay is classed as cell-based. Conditions: Test 2, M. tuberculosis H37Rv; for MIC90: read-out: Bacterial activity MIC90; for IC50: read-out: Bacterial activity pMIC50 (converted). (The colour change of resazurin is a common sign of viable cells or microbes.)

Setting [1] is: Mycobacterium tuberculosis, H37RV.

As for `CCc1nc2ncc(OC(F)(F)F)cn2c1C(=O)NCc1ccc(-c2nc3n(n2)CC[C@H](C(F)(F)F)C3)cc1` [Compound 84], under setting [1], the MIC90 was above 0.38 µM and the IC50 was above 93300 pM.

As to `CCc1nc2ncc(OC(F)(F)F)cn2c1C(=O)NCc1ccc(-c2nc3n(n2)CC[C@@H](C(F)(F)F)C3)cc1` [Compound 85], under setting [1], the MIC90 was above 0.5 µM and the IC50 is above 501000 pM.

As to `CCc1nc2ncccn2c1C(=O)NCc1ccc(-c2nc3n(n2)CC[C@@H](C(F)(F)F)C3)c(C)c1` [Compound 86], the “Bacterial activity pMIC50” value is on record as 6.98 and the MIC90 was 0.44 µM (≈ 0.213 µg/mL).

As for `CCc1nc2ncccn2c1C(=O)NCc1ccc(-c2nc3n(n2)CC[C@H](C(F)(F)F)C3)c(C)c1` [Compound 87], the “Bacterial activity pMIC50” value is listed as 6.97 and the MIC90 was found to be 0.47 µM (≈ 0.227 µg/mL).

Turning to `CCc1nc2ncc(C)cn2c1C(=O)NCc1ccc(-c2cn3c(n2)CCCC3)cc1` [Compound 88], under setting [1], the MIC90 amounted to 0.099 µM (≈ 0.041 µg/mL) and the IC50 was 37200 pM.

With `CCc1nc2nc(C)c(Cl)cn2c1C(=O)NCc1ccc(-c2cn3c(n2)CC(C(F)(F)F)CC3)cc1` (stereo not shown) [Compound 90], under setting [1], the MIC90 was 0.15 µM (≈ 0.0775 µg/mL) and the IC50 is 60300 pM.

Take `CCc1nc2nc(C)ccn2c1C(=O)NCc1ccc(-c2nc3n(n2)CCC(C)C3)cc1` (stereo not shown) [Compound 92]: under setting [1], the MIC90 is 0.2 µM (≈ 0.0859 µg/mL) and the IC50 was 61700 pM.

Take `CCc1nc2ncc(C)cn2c1C(=O)NCc1ccc(-c2nc3n(n2)CCC(F)C3)cc1` (stereo not shown) [Compound 96]: under setting [1], the MIC90 was found to be 0.094 µM (≈ 0.0407 µg/mL) and the IC50 is 33900 pM.

Take `CCc1nc2ncc(C)cn2c1C(=O)NCc1ccc(-c2nc3n(n2)CCC(C)C3)c(F)c1` (stereo not shown) [Compound 97]: under setting [1], the MIC90 turned out to be 0.057 µM (≈ 0.0255 µg/mL) and the IC50 was 19100 pM.

For `CCOC1CCn2nc(-c3ccc(CNC(=O)c4c(CC)nc5ncc(C)cn45)cc3)nc2C1` (stereo not shown) [Compound 98], under setting [1], the MIC90 stood at 0.11 µM (≈ 0.0506 µg/mL) and the IC50 was 27500 pM.

For the molecule `CCc1nc2nc(C)ccn2c1C(=O)NCc1ccc(-c2nc3n(n2)CCC(C(F)F)C3)cc1` (stereo not shown) [Compound 99], under setting [1], the MIC90 stood at 0.22 µM (≈ 0.102 µg/mL) and the IC50 is 70800 pM.

For `Cc1cnc2nc(C(C)C)c(C(=O)NCc3ccc(-c4cn5c(n4)CC(C(F)(F)F)CC5)cc3)n2c1` (stereo not shown) [Compound 100], under setting [1], the MIC90 was 0.2 µM (≈ 0.0993 µg/mL) and the IC50 is 61700 pM.

With `O=C(NCc1cnc(-c2cn3c(n2)CC(C(F)(F)F)CC3)c(F)c1)c1c(C(F)(F)F)nc2ccccn12` (stereo not shown) [Compound 101], under setting [1], the MIC90 worked out at 3.95 µM (≈ 2.08 µg/mL) and the IC50 is 2e+06 pM.

For the molecule `CCc1nc2ncc(C)cn2c1C(=O)NCc1ccc(-c2nc3n(n2)CCC(OC)C3)c(F)c1` (stereo not shown) [Compound 107], under setting [1], the MIC90 is 0.33 µM (≈ 0.153 µg/mL) and the IC50 was 135000 pM.

Consider `CCc1nc2ncc(C)cn2c1C(=O)NCc1ccc(-c2cn3c(n2)CC(CC)CC3)cc1` (stereo not shown) [Compound 109], for which the “Bacterial activity pMIC50” value was 8.04 and the MIC90 was found to be 0.024 µM (≈ 0.0106 µg/mL).

For `CCc1nc2ncc(C)cn2c1C(=O)NCc1ccc(-c2nc3n(n2)CCC(CC(F)(F)F)C3)cc1` (stereo not shown) [Compound 110], under setting [1], the MIC90 stood at 0.016 µM (≈ 0.00796 µg/mL) and the IC50 is 5890 pM.

`CCc1nc2ncc(OC)cn2c1C(=O)NCc1ccc(-c2cn3c(n2)C[C@H](C(F)(F)F)CC3)cc1` [Compound 111]: under setting [1], the MIC90 stood at 0.012 µM (≈ 0.00598 µg/mL) and the IC50 is 4680 pM.

In the case of `CCc1nc2ncc(OC)cn2c1C(=O)NCc1ccc(-c2cn3c(n2)C[C@@H](C(F)(F)F)CC3)cc1` [Compound 112], under setting [1], the MIC90 was 0.027 µM (≈ 0.0135 µg/mL) and the IC50 was 8510 pM.

For `CCc1nc2cc(F)ccn2c1C(=O)NCc1ccc(-c2cn3c(n2)C[C@@H](C(F)(F)F)CC3)cc1` [Compound 113], under setting [1], the MIC90 turned out to be 0.034 µM (≈ 0.0165 µg/mL) and the IC50 is 12900 pM.

Turning to `CCc1nc2cc(F)ccn2c1C(=O)NCc1ccc(-c2cn3c(n2)C[C@H](C(F)(F)F)CC3)cc1` [Compound 114], under setting [1], the MIC90 amounted to 0.032 µM (≈ 0.0155 µg/mL) and the IC50 is 7590 pM.

Take `CCc1nc2ncc(C)cn2c1C(=O)NCc1ccc(-c2nc3n(n2)CCC(C)(COC)C3)cc1` (stereo not shown) [Compound 115]: under setting [1], the MIC90 worked out at 0.096 µM (≈ 0.0455 µg/mL) and the IC50 is 24500 pM.

On to `CCc1nc2ncc(C)cn2c1C(=O)NCc1ccc(-c2cn3c(n2)CCC(C(F)(F)F)C3)cc1` (stereo not shown) [Compound 116], for which, under setting [1], the MIC90 came out at 0.0097 µM (≈ 0.00468 µg/mL) and the IC50 was 4570 pM.

Turning to `CCc1nc2ncc(C)cn2c1C(=O)NCc1ccc(-c2cn3c(n2)CC(C(F)(F)F)CC3)c(F)c1` (stereo not shown) [Compound 117], under setting [1], the MIC90 turned out to be 0.077 µM (≈ 0.0385 µg/mL) and the IC50 was 3090 pM.

`CCc1nc2ncc(OC)cn2c1C(=O)NCc1ccc(-c2nc3n(n2)CCCC3)cc1` [Compound 119]: the “Bacterial activity pMIC50” value stood at 7.72 and the MIC90 is listed as 0.052 µM (≈ 0.0224 µg/mL).

With `CCc1nc2ncc(C)cn2c1C(=O)NCc1ccc(-c2cn3c(n2)CC(C(F)(F)F)CC3)c(C)c1` (stereo not shown) [Compound 121], under setting [1], the MIC90 was 0.035 µM (≈ 0.0174 µg/mL) and the IC50 was 8710 pM.

Take `CCc1nc2ncc(C)cn2c1C(=O)NCc1cnc(-c2cn3c(n2)CC(C(F)(F)F)CC3)cc1C` (stereo not shown) [Compound 122]: under setting [1], the MIC90 is 0.21 µM (≈ 0.104 µg/mL) and the IC50 is 43700 pM.

For `CCc1nc2ncc(C)cn2c1C(=O)NCc1cnc(-c2cn3c(n2)CC(C(F)(F)F)CC3)c(C)c1` (stereo not shown) [Compound 123], under setting [1], the MIC90 was above 0.5 µM and the IC50 is above 501000 pM.

As to `CCc1nc2ncc(C)cn2c1C(=O)NCc1ccc(-c2nc3n(n2)CC(C)CC3)cc1` (stereo not shown) [Compound 125], under setting [1], the MIC90 was 0.04 µM (≈ 0.0172 µg/mL) and the IC50 was 11200 pM.

For the molecule `CCc1nc2ccccn2c1C(=O)NCc1ccc(-c2nc3n(n2)CCC(C(C)(F)F)C3)cc1` (stereo not shown) [Compound 133], under setting [1], the MIC90 worked out at 0.051 µM (≈ 0.0237 µg/mL) and the IC50 is 11700 pM.

Consider `CCc1nc2n(c1C(=O)NCc1ccc(-c3nc4n(n3)CCC(C(C)(F)F)C4)cc1)CCCC2` (stereo not shown) [Compound 134], for which, under setting [1], the MIC90 was determined as 0.12 µM (≈ 0.0562 µg/mL) and the IC50 was 25700 pM.

As to `CCc1nc2nc(CN)ccn2c1C(=O)NCc1ccc(-c2nc3n(n2)CCC(C(F)(F)F)C3)cc1` (stereo not shown) [Compound 138], under setting [1], the MIC90 was above 0.5 µM and the IC50 is above 501000 pM.

Consider `CCc1nc2n(c1C(=O)NCc1ccc(-c3nc4n(n3)CC[C@@H](C(F)(F)F)C4)cc1)C[C@H](OC)CC2` [Compound 140], for which, under setting [1], the MIC90 turned out to be 0.33 µM (≈ 0.166 µg/mL) and the IC50 was 115000 pM.

Consider `CCc1nc2n(c1C(=O)NCc1ccc(-c3nc4n(n3)CC[C@H](C(F)(F)F)C4)cc1)C[C@H](OC)CC2` [Compound 141], for which, under setting [1], the MIC90 was above 0.5 µM and the IC50 was 166000 pM.

As for `CCc1nc2n(c1C(=O)NCc1ccc(-c3cn4c(n3)C[C@@H](C(F)(F)F)CC4)cc1)CCCC2` [Compound 142], under setting [1], the MIC90 was found to be 0.097 µM (≈ 0.0457 µg/mL) and the IC50 is 22900 pM.

For the molecule `CCc1nc2ncc(C)cn2c1C(=O)NCc1ccc(-c2nc3n(n2)CCC(COC)C3)c(F)c1` (stereo not shown) [Compound 143], under setting [1], the MIC90 is 0.092 µM (≈ 0.0439 µg/mL) and the IC50 was 33100 pM.

`CCc1nc2cc(F)ccn2c1C(=O)NCc1ccc(-c2nc3n(n2)CCC(C(C)(F)F)C3)cc1` (stereo not shown) [Compound 145]: under setting [1], the MIC90 is 0.041 µM (≈ 0.0198 µg/mL) and the IC50 is 11500 pM.

With `CCc1nc2ncc(C)cn2c1C(=O)NCc1ccc(-c2cc3n(n2)CCCC3)c(C)n1` [Compound 146], under setting [1], the MIC90 worked out at 0.15 µM (≈ 0.0644 µg/mL) and the IC50 is 42700 pM.

For `CCc1nc2ncc(C)cn2c1C(=O)NCc1ccc(-c2cn3c(n2)CC(C(F)F)CC3)cc1` (stereo not shown) [Compound 147], the “Bacterial activity pMIC50” value worked out at 7.82 and the MIC90 is on record as 0.05 µM (≈ 0.0232 µg/mL).
